For orientation: inhibition means how much of the control response was suppressed. A word on the IC50: it is the concentration that inhibits the measured activity by half. Read a low IC50 as higher potency.

In article PMC10054477, “Design, Synthesis, and Biological Evaluation of Sulfonamide Methoxypyridine Derivatives as Novel PI3K/mTOR Dual Inhibitors” (Pharmaceuticals, 2023) one finds inhibition and IC50 data, which are given here for ten compounds.

One experiment deals with T1, PI3Kα (Homo sapiens, UniProt P42336).
T1 construct: purchased SignalChem P27-122DH
T1 sequence (P42336 whole entry): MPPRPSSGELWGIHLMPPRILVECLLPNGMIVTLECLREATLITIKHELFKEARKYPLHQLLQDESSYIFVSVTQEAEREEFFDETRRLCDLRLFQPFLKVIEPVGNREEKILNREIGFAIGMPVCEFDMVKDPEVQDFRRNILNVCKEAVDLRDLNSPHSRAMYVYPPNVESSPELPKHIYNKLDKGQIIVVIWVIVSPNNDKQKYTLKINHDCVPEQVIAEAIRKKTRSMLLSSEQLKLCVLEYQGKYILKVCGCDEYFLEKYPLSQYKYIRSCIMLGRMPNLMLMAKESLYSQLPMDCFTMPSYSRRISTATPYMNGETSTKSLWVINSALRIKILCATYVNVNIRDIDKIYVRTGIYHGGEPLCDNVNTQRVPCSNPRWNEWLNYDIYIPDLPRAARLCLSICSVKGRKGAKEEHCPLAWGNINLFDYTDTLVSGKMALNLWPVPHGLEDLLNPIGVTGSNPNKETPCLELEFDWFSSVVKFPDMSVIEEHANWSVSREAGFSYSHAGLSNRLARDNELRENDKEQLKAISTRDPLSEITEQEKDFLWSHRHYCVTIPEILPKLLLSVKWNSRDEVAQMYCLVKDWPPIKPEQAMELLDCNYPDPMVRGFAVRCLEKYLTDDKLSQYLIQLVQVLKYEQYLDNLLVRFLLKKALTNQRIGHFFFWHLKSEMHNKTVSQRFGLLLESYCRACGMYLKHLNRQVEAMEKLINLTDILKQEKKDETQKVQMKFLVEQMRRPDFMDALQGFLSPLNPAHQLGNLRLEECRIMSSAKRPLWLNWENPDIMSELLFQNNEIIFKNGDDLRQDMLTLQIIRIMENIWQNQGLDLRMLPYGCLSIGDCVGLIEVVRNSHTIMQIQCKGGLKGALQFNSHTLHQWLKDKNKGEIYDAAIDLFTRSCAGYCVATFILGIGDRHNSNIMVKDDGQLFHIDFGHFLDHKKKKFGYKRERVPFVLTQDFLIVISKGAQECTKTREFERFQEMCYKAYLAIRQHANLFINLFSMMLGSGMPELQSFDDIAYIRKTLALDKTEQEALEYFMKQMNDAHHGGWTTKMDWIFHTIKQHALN
T1 sequence (P27986 whole entry partner): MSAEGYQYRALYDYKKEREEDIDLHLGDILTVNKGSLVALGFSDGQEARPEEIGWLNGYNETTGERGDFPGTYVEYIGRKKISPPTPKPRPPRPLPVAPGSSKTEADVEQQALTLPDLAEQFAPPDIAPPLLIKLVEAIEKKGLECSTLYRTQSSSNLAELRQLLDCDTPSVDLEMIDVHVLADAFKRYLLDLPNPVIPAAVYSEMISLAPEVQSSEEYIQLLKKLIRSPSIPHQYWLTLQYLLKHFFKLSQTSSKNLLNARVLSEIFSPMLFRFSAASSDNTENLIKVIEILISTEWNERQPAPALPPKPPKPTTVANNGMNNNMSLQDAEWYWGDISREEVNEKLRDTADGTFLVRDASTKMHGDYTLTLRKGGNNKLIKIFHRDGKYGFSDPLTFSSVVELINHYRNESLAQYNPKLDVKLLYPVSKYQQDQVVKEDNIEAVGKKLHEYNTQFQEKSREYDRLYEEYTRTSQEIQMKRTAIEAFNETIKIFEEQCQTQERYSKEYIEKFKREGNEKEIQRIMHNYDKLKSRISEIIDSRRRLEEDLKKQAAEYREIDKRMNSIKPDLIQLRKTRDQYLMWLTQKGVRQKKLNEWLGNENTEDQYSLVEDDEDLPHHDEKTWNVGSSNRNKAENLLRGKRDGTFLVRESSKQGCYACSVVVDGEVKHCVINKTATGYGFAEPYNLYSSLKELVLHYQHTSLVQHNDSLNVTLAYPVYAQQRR
Description: ADP-Glo kinase assay, PI3Kα enzyme inhibition. The format is biochemical. Particulars: for inhibition at 0.001 µM: at 1 nM. The method, then:
The enzymatic inhibitory assays of all target compounds against PI3Kα were performed with the ADP-Glo assay (Promega, Madison, WI, USA, catalog No. V9102/3). Briefly, compounds were continuously diluted to a certain concentration. […] The mixture was added to a 96-well plate and incubated in a dark place at ambient temperature for 40 min. Then, the kinase reaction was stopped by adding of ADP-Glo reagent and the plate was incubated again at ambient temperature for another 40 min. The kinase detection reagent was added and the signal was collected via PerkinElmer Envision plate reader (PE, Boston, MA, USA).
(In general: ADP-Glo first removes unused ATP, then detects ADP through luciferase.)

In the next experiment the test system is MCF-7 cells. Description: CCK-8 cell viability assay, MCF-7. Format: cell-based. Particulars: Homo sapiens, MCF7, 72 h, mean (n = 3). The method, then: (§1) MCF-7 and HCT-116 cells were purchased from the Meilunbio Biotechnology Co., Ltd. (Dalian, China). Cells were cultured at 37 °C with 5% CO2, using DMEM or RPMI 1640 medium (Meilunbio, Dalian, China) with 10% (v/v) fetal bovine serum (Gibco, San Diego, CA, USA) and 1% (v/v) penicillin and streptomycin (Meilunbio, Dalian, China). CCK-8 assay was used to determine the inhibitory effect in vitro. In short, cells were incubated into 96-well plates at the rate of 5000 cells per well. After 24 h of incubation, 100 μL medium was added, which contained a specific concentration of the test compound. After 72 h, 10 μL CCK-8 regent was added and the plate was incubated at 37 °C, 5% CO2 for 1 h. The optical density of each hole at 450 nm was read by a BioTek TS-800 microplate reader. GraphPad Prism 9.3.1 software was used to calculate the IC50 value.
(Tetrazolium assays rely on reduction of a dye to a coloured formazan, in cell work by metabolically active cells.)

Another experiment deals with HCT-116 cells. Description: CCK-8 cell viability assay, HCT-116. Particulars: Homo sapiens, mean (n = 3). Format: cell-based. The method, then: as §1

Regarding `CCCCNc1ncnc2c1sc1cc(-c3cnc(OC)c(NS(=O)(=O)c4ccc(F)cc4F)c3)ccc12` [11i, N-(5-(4-(butylamino)benzo[4,5]thieno[3,2-d]pyrimidin-7-yl)-2-methoxypyridin-3-yl)-2,4-difluorobenzenesulfonamide], 0.001 µM produced 15% inhibition at PI3Kα (Table 1). Moreover, the IC50 in the experiment on MCF-7 cells (Table 1) is above 1 µM; in the experiment with HCT-116 cells (Table 1, 72 h), above 1 µM.

Consider `COc1ncc(-c2ccc3nccc(-c4ncc(C(=O)NC5CC5)o4)c3c2)cc1NS(=O)(=O)c1ccc(F)cc1F` [22d, N-cyclopropyl-2-(6-(5-((2,4-difluorophenyl)sulfonamido)-6-methoxypyridin-3-yl)quinolin-4-yl)oxazole-5-carboxamide], for which, on PI3Kα (Table 3), 0.001 µM produced 82% inhibition. Further, the IC50 against PI3Kα (mean (n = 2)) was determined as 0.22 nM; with MCF-7 cells (Table 3), 0.46 ± 0.11 µM; in the experiment with HCT-116 cells (Table 3, 72 h) it was 0.1 ± 0.06 µM.

Take `COc1ncc(-c2cnc3ncnc(NCCO)c3c2)cc1NS(=O)(=O)c1ccc(F)cc1F` [17h, N-(5-(4-((2-hydroxyethyl)amino)pyrido[2,3-d]pyrimidin-6-yl)-2-methoxypyridin-3-yl)-2,4-difluorobenzenesulfonamide]: at 0.001 µM the inhibition on PI3Kα (Table 2) was 24%. The IC50 in the experiment on MCF-7 cells (Table 2) was found to be 0.93 ± 0.48 µM; in the experiment on HCT-116 cells (Table 2, 72 h) it was 0.69 ± 0.12 µM.

`COc1ncc(-c2cnc3ncnc(NC(C)C)c3c2)cc1NS(=O)(=O)c1ccc(F)cc1F` [17a, 2,4-difluoro-N-(5-(4-(isopropylamino)pyrido[2,3-d]pyrimidin-6-yl)-2-methoxypyridin-3-yl)benzenesulfonamide] registered an inhibition at 0.001 µM on PI3Kα (Table 2) of 39%. In addition, the IC50 in the experiment on MCF-7 cells (Table 2) was 0.85 ± 0.3 µM; in the experiment with HCT-116 cells (Table 2, 72 h), 0.59 ± 0.15 µM.

As for `CCOC(=O)c1cnc(-c2ccnc3ccc(-c4cnc(OC)c(NS(=O)(=O)c5ccc(F)cc5F)c4)cc23)o1` [22a, Ethyl-2-(6-(5-((2,4-difluorophenyl)sulfonamido)-6-methoxypyridin-3-yl)quinolin-4-yl)oxazole-5-carboxylate], the inhibition at 0.001 µM on PI3Kα (Table 3) was 20%. For the same compound, the half-maximal inhibitory concentration (IC50) was above 1 µM with MCF-7 cells (Table 3) and above 1 µM with HCT-116 cells (Table 3, 72 h).

Take `COc1ncc(-c2ccc3c(c2)sc2c(NCCCN4CCOCC4)ncnc23)cc1NS(=O)(=O)c1ccc(F)cc1F` [11j, N-(2-methoxy-5-(4-((3-morpholinopropyl)amino)benzo[4,5]thieno[3,2-d]pyrimidin-7-yl)pyridin-3-yl)-2,4-difluorobenzenesulfonamide]: 0.001 µM produced 10% inhibition against PI3Kα (Table 1). Moreover, the IC50 is above 1 µM in the experiment with MCF-7 cells (Table 1) and above 1 µM with HCT-116 cells (Table 1, 72 h).

At PI3Kα (Table 2), `COc1ncc(-c2cnc3ncnc(N4CCC(C)CC4)c3c2)cc1NS(=O)(=O)c1ccc(F)cc1F` [17f, N-(2-methoxy-5-(4-(4-methylpiperidin-1-yl)pyrido[2,3-d]pyrimidin-6-yl)pyridin-3-yl)-2,4-difluorobenzenesulfonamide] returned an inhibition at 0.001 µM of 11%. The IC50 came out at 0.86 ± 0.3 µM in the experiment with MCF-7 cells (Table 2) and 0.51 ± 0.25 µM with HCT-116 cells (Table 2, 72 h).

In turn, `COc1ncc(-c2ccc3nccc(-c4ncc(C(=O)NCC5CCCCC5)o4)c3c2)cc1NS(=O)(=O)c1ccc(F)cc1F` [22i, N-(cyclohexylmethyl)-2-(6-(5-((2,4-difluorophenyl)sulfonamido)-6-methoxypyridin-3-yl)quinolin-4-yl)oxazole-5-carboxamide] yielded an inhibition at 0.001 µM at PI3Kα (Table 3) of 33%. Moreover, the IC50 with MCF-7 cells (Table 3) is 1 ± 0.3 µM; in the experiment on HCT-116 cells (Table 3, 72 h), 0.77 ± 0.19 µM.

On PI3Kα (Table 1), `COCCOc1ncnc2c1sc1cc(-c3cnc(OC)c(NS(=O)(=O)c4ccc(F)cc4F)c3)ccc12` [11l, N-(2-methoxy-5-(4-(2-methoxyethoxy)benzo[4,5]thieno[3,2-d]pyrimidin-7-yl)pyridin-3-yl)-2,4-difluorobenzenesulfonamide] registered an inhibition at 0.001 µM of 18%. In addition, the IC50 in the experiment on MCF-7 cells (Table 1) is 0.86 ± 0.12 µM; with HCT-116 cells (Table 1, 72 h), above 1 µM.

With `COc1ncc(-c2cnc3ncnc(NCCN(C)C)c3c2)cc1NS(=O)(=O)c1ccc(F)cc1F` [17d, N-(5-(4-((2-(dimethylamino)ethyl)amino)pyrido[2,3-d]pyrimidin-6-yl)-2-methoxypyridin-3-yl)-2,4-difluorobenzenesulfonamide], on PI3Kα (Table 2), the inhibition at 0.001 µM was determined as 31%. The IC50 in the experiment with MCF-7 cells (Table 2) turned out to be 0.73 ± 0.19 µM; in the experiment with HCT-116 cells (Table 2, 72 h) it was 0.52 ± 0.23 µM.
